Several values for one entry are separate records, joined by “and”; a condition that tells them apart may be missing. Equal entries are not always repeated. Where two headings read alike, the source gives them in different places.
Tests used:
Assay in all cases: Fluorescence polarization assay, FAM-labeled [AG]10 RNA and recombinant eIF4A
Format in all cases: binding
Conditions in all cases: for Kd: [AG]10 10 nM, compound 50 µM, read-out: Kd between eIF4A protein and RNA
[1] = molecular target: Ophiocordyceps sp. BRM1 eIF4A iso4 Gly172Phe
Method: (§1) The fluorescence polarization assay was performed as previously described ([Chen et al., 2021]). […] After incubation at room temperature for 30 min, the mixture was transferred to a black 384-well microplate (Corning), and the fluorescence polarization was measured by an Infinite F-200 PRO (Tecan). Under ADP + Pi conditions, 1 mM ADP (Fujifilm Wako Chemicals) and 1 mM Na2HPO4 were used as substitutes for AMP-PNP. The data were fitted to the Hill equation to calculate Kd values and visualized by Igor Pro v8.01 (WaveMetrics).

[2] = molecular target: Ophiocordyceps sp. BRM1 eIF4A iso4 WT Gly172
Method: as §1

[3] = molecular target: Ophiocordyceps sp. BRM1 eIF4A iso4 Gly172His
Method: as §1

[4] = [AG]10, ADP + Pi, RocA 50 µM, protein 0.01 μM
[5] = [AG]10, ADP + Pi, RocA 50 µM, protein 0.05 μM
[6] = [AG]10, ADP + Pi, RocA 50 µM, protein 0.075 μM
[7] = [AG]10, ADP + Pi, RocA 50 µM, protein 0.1 μM
[8] = [AG]10, ADP + Pi, RocA 50 µM, protein 0.5 μM
[9] = [AG]10, ADP + Pi, RocA 50 µM, protein 0.75 μM
[10] = [AG]10, ADP + Pi, RocA 50 µM, protein 1 μM
[11] = [AG]10, ADP + Pi, RocA 50 µM, protein 5 μM
[12] = [AG]10, ADP + Pi, RocA 50 µM, protein 7.5 μM
[13] = [AG]10, ADP + Pi, RocA 50 µM, protein 10 μM
[14] = [AG]10, ADP + Pi, RocA 50 µM, protein 25 μM
[15] = [AG]10, ADP + Pi, RocA 50 µM, protein 50 μM
[16] = [AG]10 RNA, AMP-PNP, RocA, protein concentration 0.01 μM
[17] = [AG]10 RNA, AMP-PNP, RocA, protein concentration 0.05 μM
[18] = [AG]10 RNA, AMP-PNP, RocA, protein concentration 0.075 μM
[19] = [AG]10 RNA, AMP-PNP, RocA, protein concentration 0.5 μM
[20] = [AG]10 RNA, AMP-PNP, RocA, protein concentration 0.75 μM
[21] = [AG]10 RNA, AMP-PNP, RocA, protein concentration 1 μM
[22] = [AG]10 RNA, AMP-PNP, RocA, protein concentration 5 μM
[23] = [AG]10 RNA, AMP-PNP, RocA, protein concentration 7.5 μM
[24] = [AG]10 RNA, AMP-PNP, RocA, protein concentration 10 μM
[25] = [AG]10 RNA, AMP-PNP, RocA, protein concentration 25 μM
[26] = [AG]10 RNA, AMP-PNP, RocA, protein concentration 50 μM
[27] = [AG]10 RNA, AMP-PNP, RocA, protein concentration 0.1 μM

COc1ccc([C@@]23Oc4cc(OC)cc(OC)c4[C@]2(O)[C@H](O)[C@H](C(=O)N(C)C)[C@H]3c2ccccc2)cc1 [RocA, rocaglamide A]
Kd ([1]; ADP + Pi (1 mM each)): 270 ± 50 nM | Kd ([1]; AMP-PNP 1 mM): 53 ± 23 nM | fluorescence polarization, Mean [1, 4]: -0.0929 | fluorescence polarization, replicates [1, 4]: -0.1366 | fluorescence polarization, Mean [1, 5]: -0.112 | fluorescence polarization, replicates [1, 5]: -0.1366 | fluorescence polarization, Mean [1, 6]: -0.05465 | fluorescence polarization, replicates [1, 6]: -0.005465 | fluorescence polarization, Mean [1, 7]: 0.05191 | fluorescence polarization, replicates [1, 7]: 0.0929 and 0.002732 | fluorescence polarization, Mean [1, 8]: 0.3142 | fluorescence polarization, replicates [1, 8]: 0.3142 and 0.2486 | fluorescence polarization, Mean [1, 9]: 0.3661 | fluorescence polarization, replicates [1, 9]: 0.429 and 0.306 | fluorescence polarization, Mean [1, 10]: 0.4044 | fluorescence polarization, replicates [1, 10]: 0.3552 and 0.429 (2×) | fluorescence polarization, Mean [1, 11]: 0.4399 | fluorescence polarization, replicates [1, 11]: 0.4781 and 0.4208 (2×) | fluorescence polarization, Mean [1, 12]: 0.5328 | fluorescence polarization, replicates [1, 12]: 0.5519 and 0.5027 | fluorescence polarization, Mean [1, 13]: 0.5055 | fluorescence polarization, replicates [1, 13]: 0.4372 and 0.5109 and 0.5683 | fluorescence polarization, Mean [1, 14]: 0.5301 | fluorescence polarization, replicates [1, 14]: 0.4863 | fluorescence polarization, Mean [1, 15]: 0.5273 | fluorescence polarization, replicates [1, 15]: 0.5765 and 0.5519 and 0.4536 | Fluorescence polarization, Replicate 1-3 [1, 16]: 0.3525 and 0.2213 and 0.04098 | fluorescence polarization, Mean [1, 16]: 0.2049 | Fluorescence polarization, Replicate 1-3 [1, 17]: 0.3852 and 0.2951 and 0.2787 | fluorescence polarization, Mean [1, 17]: 0.3197 | Fluorescence polarization, Replicate 1-3 [1, 18]: 0.3197 and 0.3607 and 0.3361 | fluorescence polarization, Mean [1, 18]: 0.3388 | Fluorescence polarization, Replicate 1-3 [1, 19]: 0.8689 and 0.8197 | Fluorescence polarization, Replicate 1-3 [1, 20]: 0.8115 and 0.7295 | fluorescence polarization, Mean [1, 20]: 0.7514 | Fluorescence polarization, Replicate 1-3 [1, 21]: 0.8279 and 0.8934 | Fluorescence polarization, Replicate 1-3 [1, 22]: 0.8197 and 0.877 | fluorescence polarization, Mean [1, 22]: 0.8661 | Fluorescence polarization, Replicate 1-3 [1, 23]: 0.9262 and 0.8361 and 0.8525 | fluorescence polarization, Mean [1, 23]: 0.8716 | Fluorescence polarization, Replicate 1-3 [1, 24]: 0.8689 and 0.8525 and 0.8033 | fluorescence polarization, Mean [1, 24]: 0.8415 | Fluorescence polarization, Replicate 1-3 [1, 25]: 0.8607 and 0.9262 and 0.877 | fluorescence polarization, Mean [1, 25]: 0.888 | Fluorescence polarization, Replicate 1-3 [1, 26]: 0.9344 and 0.9672 and 0.9098 | fluorescence polarization, Mean [1, 26]: 0.9372 | Kd ([2]; ADP + Pi (1 mM each)): ~17 µM and 17 µM | Kd ([2]; AMP-PNP 1 mM): 0.23 ± 0.05 µM | fluorescence polarization, Mean [2, 4]: -0.01093 | fluorescence polarization, replicates [2, 4]: 0.0929 | fluorescence polarization, Mean [2, 5]: -0.1393 | fluorescence polarization, replicates [2, 5]: -0.2186 | fluorescence polarization, Mean [2, 6]: -0.09563 | fluorescence polarization, replicates [2, 6]: -0.03825 and -0.2268 | fluorescence polarization, Mean [2, 7]: -0.08743 | fluorescence polarization, replicates [2, 7]: -0.09563 | fluorescence polarization, Mean [2, 8]: -0.2951 | fluorescence polarization, replicates [2, 8]: -0.2432 and -0.2923 and -0.3497 | fluorescence polarization, Mean [2, 9]: -0.347 | fluorescence polarization, replicates [2, 9]: -0.3169 and -0.3661 and -0.3579 | fluorescence polarization, Mean [2, 10]: -0.2568 | fluorescence polarization, replicates [2, 10]: -0.1858 and -0.2104 and -0.3743 | fluorescence polarization, Mean [2, 11]: -0.112 | fluorescence polarization, replicates [2, 11]: -0.1448 and -0.1612 | fluorescence polarization, Mean [2, 12]: -0.1202 | fluorescence polarization, replicates [2, 12]: -0.08743 | fluorescence polarization, Mean [2, 13]: 0.002732 | fluorescence polarization, replicates [2, 13]: -0.005465 | fluorescence polarization, Mean [2, 14]: 0.2951 | fluorescence polarization, replicates [2, 14]: 0.265 | fluorescence polarization, Mean [2, 15]: 0.4044 | fluorescence polarization, replicates [2, 15]: 0.4208 and 0.429 | Fluorescence polarization, Replicate 1-3 [2, 16]: -0.2186 and -0.2022 and -0.2268 | fluorescence polarization, Mean [2, 16]: -0.2158 | Fluorescence polarization, Replicate 1-3 [2, 17]: 0.2732 and -0.005465 and -0.2268 | fluorescence polarization, Mean [2, 17]: 0.01366 | Fluorescence polarization, Replicate 1-3 [2, 18]: -0.112 and -0.04645 and -0.2104 | fluorescence polarization, Mean [2, 18]: -0.123 | Fluorescence polarization, Replicate 1-3 [2, 27]: 0.3224 and -0.194 and -0.1612 | fluorescence polarization, Mean [2, 27]: -0.01093 | Fluorescence polarization, Replicate 1-3 [2, 19]: 0.2896 | fluorescence polarization, Mean [2, 19]: 0.2896 | Fluorescence polarization, Replicate 1-3 [2, 20]: 0.4699 and 0.2732 and 0.1585 | fluorescence polarization, Mean [2, 20]: 0.3005 | Fluorescence polarization, Replicate 1-3 [2, 21]: 0.4617 and 0.347 and 0.3306 | fluorescence polarization, Mean [2, 21]: 0.3798 | Fluorescence polarization, Replicate 1-3 [2, 22]: 0.5683 and 0.3962 and 0.429 | fluorescence polarization, Mean [2, 22]: 0.4645 | Fluorescence polarization, Replicate 1-3 [2, 23]: 0.5765 and 0.4372 and 0.4044 | fluorescence polarization, Mean [2, 23]: 0.4727 | Fluorescence polarization, Replicate 1-3 [2, 24]: 0.4372 and 0.3962 and 0.3224 | fluorescence polarization, Mean [2, 24]: 0.3852 | Fluorescence polarization, Replicate 1-3 [2, 25]: 0.6585 and 0.4372 and 0.4617 | fluorescence polarization, Mean [2, 25]: 0.5191 | Fluorescence polarization, Replicate 1-3 [2, 26]: 0.5929 and 0.4863 and 0.4699 | fluorescence polarization, Mean [2, 26]: 0.5164 | Kd ([3]; ADP + Pi (1 mM each)): 3900 ± 980 nM | Kd ([3]; AMP-PNP 1 mM): 51 ± 9.1 nM | fluorescence polarization, Mean [3, 4]: -0.1448 | fluorescence polarization, replicates [3, 4]: -0.04098 and -0.2377 | fluorescence polarization, Mean [3, 5]: -0.08743 | fluorescence polarization, replicates [3, 5]: -0.08197 and -0.02459 | fluorescence polarization, Mean [3, 6]: -0.06284 | fluorescence polarization, replicates [3, 6]: -0.05738 and -0.123 and -0.008197 | fluorescence polarization, Mean [3, 7]: -0.07923 | fluorescence polarization, replicates [3, 7]: -0.05738 and -0.08197 and -0.09836 | fluorescence polarization, Mean [3, 8]: 0.265 | fluorescence polarization, replicates [3, 8]: 0.2459 and 0.2541 and 0.2951 | fluorescence polarization, Mean [3, 9]: 0.2814 | fluorescence polarization, replicates [3, 9]: 0.3197 and 0.3443 and 0.1803 | fluorescence polarization, Mean [3, 10]: 0.4809 | fluorescence polarization, replicates [3, 10]: 0.4754 and 0.5 and 0.4672 | fluorescence polarization, replicates [3, 11]: 0.459 and 0.6639 | fluorescence polarization, Mean [3, 12]: 0.7978 | fluorescence polarization, replicates [3, 13]: 0.5246 and 0.5902 and 0.582 | fluorescence polarization, Mean [3, 14]: 0.8743 | fluorescence polarization, replicates [3, 14]: 0.8197 and 0.877 and 0.9262 | fluorescence polarization, Mean [3, 15]: 1.003 | fluorescence polarization, replicates [3, 15]: 1.033 and 1.0082 | Fluorescence polarization, Replicate 1-3 [3, 16]: 0.06831 and 0.1421 and 0.06011 | fluorescence polarization, Mean [3, 16]: 0.09016 | Fluorescence polarization, Replicate 1-3 [3, 17]: 0.5929 and 0.5109 and 0.4781 | fluorescence polarization, Mean [3, 17]: 0.5273 | Fluorescence polarization, Replicate 1-3 [3, 18]: 0.5519 and 0.5601 (2×) | fluorescence polarization, Mean [3, 18]: 0.5574 | Fluorescence polarization, Replicate 1-3 [3, 27]: 0.6093 and 0.6749 and 0.5519 | fluorescence polarization, Mean [3, 27]: 0.612 | Fluorescence polarization, Replicate 1-3 [3, 19]: 0.8716 (2×) and 0.806 | fluorescence polarization, Mean [3, 19]: 0.8497 | Fluorescence polarization, Replicate 1-3 [3, 20]: 0.8798 and 0.8634 and 0.9126 | fluorescence polarization, Mean [3, 20]: 0.8852 | Fluorescence polarization, Replicate 1-3 [3, 21]: 0.9536 and 0.9372 and 0.8716 | fluorescence polarization, Mean [3, 21]: 0.9208 | Fluorescence polarization, Replicate 1-3 [3, 22]: 0.9372 (2×) and 0.9044 | fluorescence polarization, Mean [3, 22]: 0.9262 | Fluorescence polarization, Replicate 1-3 [3, 23]: 0.8716 and 0.9126 and 0.9044 | fluorescence polarization, Mean [3, 23]: 0.8962 | Fluorescence polarization, Replicate 1-3 [3, 24]: 0.9536 and 0.929 and 0.8552 | fluorescence polarization, Mean [3, 24]: 0.9126 | Fluorescence polarization, Replicate 1-3 [3, 25]: 0.9372 and 1.027 and 0.9536 | fluorescence polarization, Mean [3, 25]: 0.9727 | Fluorescence polarization, Replicate 1-3 [3, 26]: 1.044 (2×) and 1.027 | fluorescence polarization, Mean [3, 26]: 1.038

From paper PMC9977294, “A parasitic fungus employs mutated eIF4A to survive on rocaglate-synthesizing Aglaia plants” (eLife, 2023)
